A short description of series [1]: Avoidance reflex in conditioned mice. It counts as in vivo, mouse. Conditions: control 53.3 ± 4.5 sec. The source says:
A conditioning cage was constructed of two chambers with free access between chambers. The floor of one compartment was electrified to make it possible to deliver a mild shock. Mice were conditioned by first giving a warning signal and then after a short period of time the shock was applied. Eventually the mice learned to leave the electrified compartment after the warning bell sounded and they were then judged to be conditioned. The average period of time, in this experiment, for control animals (4) to leave the compartment was 53.3 ± 4.5 sec. Four conditioned mice were administered AP-28 intraperitoneally with 250 mg/kg and their time was 60.6 ± 3.9 sec. Four more conditioned mice treated with 500 mg/kg of AP-28 required 77.5 ± 2.7 sec. to clear the compartment.

Series [2] can be described thus: Subacute toxicity, daily oral dosing for 6 consecutive days. The conditions noted are these: 500 mg/kg daily for 6 consecutive days. It counts as in vivo, rat. Here is the method:
Accordingly, 8 rats were given 500 mg/kg daily for 6 consecutive days.

The nature of series [3]: Protective effect against strychnine (single injection). It counts as in vivo, mouse. Conditions: 30 minutes before strychnine. How it is done:
This type of antagonism was evaluated in the mouse in three ways, namely: (1) protection from death from one hypodermic injection of strychnine: (2) evaluation of the LD50 of strychnine in mice both treated and untreated with AP-28, and (3) influence on the time required to cause animals to die by slow intravenous perfusion of strychnine. […] Groups of six mice were used. (2) increasing amounts of strychnine sulfate were injected hypodermically. In two experiments 200 or 400 mg/kg of intraperitoneal AP-28 were given 30 minutes prior to strychnine injection and the LD50 was calculated. The following results were obtained (95-percent confidence limits): […]

This note sets out measurements from patent US3968233A, “α-Amino-γ-butyrolactones as sedatives” (priority 1975, dated 1976).

Take `CCCCOC(=O)NC1CCOC1=O` (stereo not drawn) [AP-28, α-n-butoxycarbonyl-amino-γ-butyrolactone]: the “time to leave the electrified compartment” value in series [1] (250 mg/kg i.p.) worked out at 60.6 ± 3.9 s; in series [1] (500 mg/kg i.p.), 77.5 ± 2.7 s. For the same compound, the “sedative effect or other abnormal symptoms” value in series [2] is recorded as “No sedative effect or other abnormal symptoms were observed”. In series [2], the “tendency to accumulate in the organism” value is “no tendency for AP-28 to accumulate in the organism”. In addition, the Animals with convulsions/treated in series [3] (250 mg/kg i.p.) is 7/7; in series [3] (500 mg/kg i.p.), 3/8; in series [3] (500 mg/kg os), 5/9. Also, the Died/treated was 1/7 in series [3] (250 mg/kg i.p.), 0/8 in series [3] (500 mg/kg i.p.) and 0/9 in series [3] (500 mg/kg os). Moreover, the “Time of death” value in series [3] (250 mg/kg i.p., extreme values) was determined as 33 min.
